“And” between values parts separate entries of the source, which are not always exact repeats. Identical values can stand only once. Where a SMILES comes first, the peptide text is derived from it. Bridges are numbered along the chain shown (N, C = ends). [ ]: non-standard residue; d: D form. The star is where a group is joined. X1 = CC(=O)O[C@@]12CO[C@@H]1C[C@H](O)[C@@]1(C)C(=O)[C@H](O)C3=C(C)[C@@H](OC(=O)[C@H](OC(=O)CCNC(=O)C4CCC(CN5C(=O)CC(*)C5=O)CC4)[C@@H](NC(=O)OC(C)(C)C)c4ccccc4)C[C@@](O)([C@@H](OC(=O)c4ccccc4)[C@H]21)C3(C)C; Doxorubicin(Traut) = COc1cccc2c1C(=O)c1c(O)c3c(c(O)c1C2=O)C[C@@](O)(C(=O)CO)C[C@@H]3O[C@H]1C[C@H](NC(=N)CCCS*)[C@H](O)[C@H](C)O1; Ahx = NCCCCCC(=O)O
Key:
[1] = system: RWPE-1, PC3, LNCap, Du-145 cell lines; experiment: MTS cell viability, range over four cell lines; assay type: cell-based, human; conditions: 5 µM, 72 h incubation
From the text: (§1) Human epithelial prostate cell line (RWPE-1, ATCC No. CRL-11610), human prostate cancer cell line (Human prostate carcinoma DU-145, ATCC No. HTB-81), human adenocarcinoma PC3, ATCC No. CRL-1435), androgen-sensitive human prostate adenocarcinoma cells (LNCaP, ATCC No. CRL-1740), and castration-resistant LNCaP-derived C4-2 (ATCC No. CRL-1595) were purchased from American Type Culture Collection (ATCC), Manassas, VA, USA. All the media, serum, and antibiotics were bought from American Type Culture Collection (ATCC) (Manassas, VA, USA) and Sigma life-science (St. Louis, MO, USA). Keratinocytes SFM (1×) with EGF + BPE was bought from Gibco life technologies (Thermo Fisher Scientific), Gaithersburg, MD, USA. CellTiter 96 was bought from Promega, Madison, WI, USA. Dithiothreitol (DTT) was bought from Thermo Fisher scientific, Carlsbad, CA, USA, and TGF-β was bought from Abcam, Boston, MA, USA.
(§2) Cell-proliferation assay using MTS reagent was conducted against five cell lines (RWPE-1, PC3, DU-145, LNCaP, and, C4-2). Cells were seeded into 96-well plates (5 × 10^3 cells for all the cells) and incubated with 100 µL of complete medium (RPMI-1640 for RWPE-1, DU-145, LNCaP, and C4-2; DMEM for PC3) overnight at 37 °C with 5% CO2. Various concentrations (0, 0.06, 0.6, 6, 60, 600 μM) of the peptide solution (20 μL) were added to cells to yield the final concentrations of peptide (0, 0.01, 0.1, 1, 10, 100 μM). The cells were kept in an incubator (37 °C, 5% CO2) for 24, 48, or 72 h accordingly for different treatment time responses. […] The absorbance was obtained at 490 nm using SpectraMax M2 microplate reader to detect the formazan product. […] The percentage of cell viability was calculated by [(OD value of cells treated with the test mixture of compounds) − (OD value of culture medium)] / [(OD value of control cells) − (OD value of culture medium)] × 100%. […] Cell viability was determined by measuring the absorbance at 490 nm using SpectraMax M2 microplate spectrophotometer, as mentioned above.

[2] = system: C4-2 cells with TGF-β treatment (EDB-FN overexpression); experiment: MTS cell viability of C4-2 cells treated with TGF-β to overexpress EDB-FN; assay type: cell-based, human; conditions: C4-2, TGF-β 10 ng/mL for 3 days; for decrease in cell viability in TGF-β treated cells as compared to untreated cells: after 72 h
Method: Cell-proliferation assay using MTS reagent was conducted against five cell lines (RWPE-1, PC3, DU-145, LNCaP, and, C4-2). Cells were seeded into 96-well plates (5 × 10^3 cells for all the cells) and incubated with 100 µL of complete medium (RPMI-1640 for RWPE-1, DU-145, LNCaP, and C4-2; DMEM for PC3) overnight at 37 °C with 5% CO2. Various concentrations (0, 0.06, 0.6, 6, 60, 600 μM) of the peptide solution (20 μL) were added to cells to yield the final concentrations of peptide (0, 0.01, 0.1, 1, 10, 100 μM). The cells were kept in an incubator (37 °C, 5% CO2) for 24, 48, or 72 h accordingly for different treatment time responses. Then, a CellTiter 96 aqueous solution (20 μL) was added to each well and incubated for 4 h under the same condition. The absorbance was obtained at 490 nm using SpectraMax M2 microplate reader to detect the formazan product. Wells containing cells in the absence of any peptide were used as a control. The percentage of cell viability was calculated by [(OD value of cells treated with the test mixture of compounds) − (OD value of culture medium)] / [(OD value of control cells) − (OD value of culture medium)] × 100%. […] Cell viability was determined by measuring the absorbance at 490 nm using SpectraMax M2 microplate spectrophotometer, as mentioned above.
To compare the cytotoxicity of compounds using treatment of TGF-β, the cells were culture, and 8000 cells (RPWE-1, PC3, DU-145, LNCap, and C4-2) were added in 120 μL per well with TGF-β treatment. Cells were exposed to TGF-β at 10 ng/mL for 3 days. Then cells were seeded in the corresponding medium (DMEM containing 10% FBS and 1% penicillin–streptomycin for DU-145, LNCaP, and PC3; keratinocyte containing 0.1% FBS without antibiotics for RWPE-1), 24 h prior to the experiment. Then, MTS assay was followed up, as mentioned in 3.5.1.

[3] = Stability in 25% human serum; assay type: in vitro ADME; conditions: 25% human serum in RPMI-1640, 37 °C, conjugate 125 µM, aliquots 2-120 min, methanol precipitation, analytical HPLC, trendline R^2 0.978, each point average of three readings
Method: The stability was performed using 25% human serum. 325 µL of RPMI-1640 media was incubated with 125 µL of human serum at 37 °C in a water bath. Then 50 µL of 125 µM of conjugate 13 was added to the RPMI and serum. The control experiment was performed without conjugate using an aqueous 5% DMSO. Several aliquots (55 µL) were removed at 2, 5, 10, 15, 30, 60, 90, and 120 min. The aliquots were added to 120 µL of cold methanol to precipitate the serum proteins with vigorous mixing using vortex and kept at ice for 10 min. Then, the samples were centrifuged at 17× g (13,300 rpm) for 10 min to get a pellet of the insoluble peptide. The supernatant was collected and analyzed on analytical HPLC, as mentioned before.

[4] = system: C4-2; experiment: MTS cell viability assay, C4-2 without TGF-β; assay type: cell-based, human; conditions: C4-2 without TGF-β, 24–72 h
From the text: as §1, §2

[5] = Stability in PBS at different pH; assay type: physicochemical; conditions: pH values ranging from 6.5 to 7.4 (method: 6.8, 7.0, 7.4), 37 °C, aliquots at 4, 24, 84 h, analytical RP-HPLC 490 nm, % remaining from AUC
Method: (§3) The stability of peptide–drug conjugate 13 was evaluated in the phosphate buffered saline (PBS). The pH of PBS was adjusted to 6.8, 7.0, 7.4 using HCl and NaOH as needed. In brief, 250 µL of 1 × PBS was mixed with 45 µL of 0.25 mM Dox-peptide conjugate 13. The mixture was incubated at 37 °C in a water bath covered with aluminum foil. An aliquot (40 µL) was removed at different time intervals, such as 4, 24, and 84 h and analyzed using analytical RP-HPLC at 490 nm. The percentage of the remained peptide was calculated using the area under the curve (AUC) by integrating the chromatogram in analytical HPLC. For evaluation of stability in DTT, a solution of DTT (0.120 mM) was prepared using PBS (pH 7.4). A solution of compounds (1, 8, and 13 at 1 mM) was prepared in PBS (pH = 7.4). A volume of 45 µL of the peptide was added to 2.250 mL of PBS in a UV-blocking glass vial. The glass vials were put under nitrogen and stirred using a small magnetic bead. A volume of DTT ([…], 12 equiv) was added to the solution, which was incubated with each peptide sample to obtain a working concentration of 0.12 mM DTT and 0.010 mM peptide. Aliquots of 200 µL were collected at different time intervals and analyzed using analytical HPLC vials (0 min was used as controls without DTT) after quenching the DTT with 10 µL of H2O (pH = 2). The aliquots were run on analytical HPLC with detection at 214 nm.

[6] = system: PC3; experiment: MTS cell viability assay, PC3; assay type: cell-based, human; conditions: PC3, 2 h incubation, 0.01-100 µM in 5% DMSO
From the text: as §1, §2

[7] = molecular target: T1, Human cathepsin B (Homo sapiens, UniProt P07858); experiment: Hydrolysis with cathepsin B enzyme; assay type: in vitro ADME; conditions: activated human cathepsin B, 50 mM acetate buffer pH 5.0 with 1 mM EDTA, 8 µL of 1 mM conjugate per 200 µL, HPLC 214/490 nm and MALDI-TOF
T1 construct: purchased Athens Research Lot # CB2016-02 (a lot number; no catalogue number given)
Method: Human cathepsin B (CTSB, Lot # CB2016-02 from Athens Research, Athens, GA, USA) was used to hydrolyze the cathepsin linker GFLG in conjugated peptide 13. A stock solution of cathepsin B enzyme (0.434 µg/µL) was prepared using 50 mM acetate (pH 5.0) buffer with 1 mM EDTA. The activation buffer was separately prepared using 30 mM DTT and 15 mM EDTA in H2O. An aliquot of 2.25 µL of cathepsin B stock was activated with 5 µL of activation buffer for 15 min at room temperature then diluted with 1.185 mL of acetate buffer and aliquoted into different tubes with 200 µL each. Further 8 µL of 1 mM of conjugated peptide 13 was added to aliquots and incubated for various time intervals. Then, the reaction was quenched by boiling to denature cathepsin B for 10 min. A 400 µL of cold methanol was added to precipitate the proteins followed by centrifugation of sample 17× g (13,300 rpm) for 10 min. A supernatant (500 µL) was collected, evaporated, and reconstituted with 300 µL of HPLC solvent A (H2O with 0.1% TFA). The eluent fraction from HPLC was further collected and analyzed using MALDI-TOF mass spectrometry to confirm the hydrolysis of the conjugate.

[8] = Stability under redox conditions with dithiothreitol (DTT); assay type: physicochemical; conditions: PBS pH 7.4, 12 equiv DTT (0.12 mM DTT, 0.010 mM peptide), analytical HPLC 214 nm, % remaining from AUC
Method: as §3

SMILES | cell proliferation (cell viability), range over all four cell lines [1] | decrease in cell viability in TGF-β treated cells as compared to untreated cells [2] [%] | cytotoxicity compared to drug alone [4] | toxicity at or below 10 µM [6] | other results
COc1cccc2c1C(=O)c1c(O)c3c(c(O)c1C2=O)C[C@@](O)(C(=O)CO)C[C@@H]3O[C@H]1C[C@H](NC(=N)CCCSSC[C@H](N)C(=O)NCC(=O)N[C@@H](Cc2ccccc2)C(=O)N[C@@H](CC(C)C)C(=O)NCC(=O)NCCCCCC(=O)N[C@H]2CCCCNC(=O)CC[C@@H](C(N)=O)NC(=O)[C@H](CC(=O)O)NC(=O)[C@H](C)NC(=O)[C@H](CO)NC(=O)[C@H]([C@@H](C)O)NC(=O)[C@H](CCCNC(=N)N)NC(=O)[C@H](C(C)C)NC(=O)[C@H]([C@@H](C)O)NC2=O)[C@H](O)[C@H](C)O1 [compound 13] (H-C(Doxorubicin(Traut))GFLG[Ahx]KTVRTSADE-NH2; lactam 7-15) | 25–35% | 17 | less cytotoxic as compared to drug alone | no significant toxicity | half-life at 12.5 µM [3]: ~0.197 h; half-life in PBS [5]: ~ 10 h; time within which cathepsin B cleaves the GFLG linker / releases drug [7]: ≤ 5 min
CC(=O)O[C@@]12CO[C@@H]1C[C@H](O)[C@@]1(C)C(=O)[C@H](O)C3=C(C)[C@@H](OC(=O)[C@H](OC(=O)CCNC(=O)C4CCC(CN5C(=O)CC(SC[C@H](N)C(=O)NCC(=O)N[C@@H](Cc6ccccc6)C(=O)N[C@@H](CC(C)C)C(=O)NCC(=O)NCCCCCC(=O)N[C@H]6CCCCNC(=O)CC[C@@H](C(N)=O)NC(=O)[C@H](CC(=O)O)NC(=O)[C@H](C)NC(=O)[C@H](CO)NC(=O)[C@H]([C@@H](C)O)NC(=O)[C@H](CCCNC(=N)N)NC(=O)[C@H](C(C)C)NC(=O)[C@H]([C@@H](C)O)NC6=O)C5=O)CC4)[C@@H](NC(=O)OC(C)(C)C)c4ccccc4)C[C@@](O)([C@@H](OC(=O)c4ccccc4)[C@H]21)C3(C)C (stereo partly drawn) [compound 14] (H-C(X1)GFLG[Ahx]KTVRTSADE-NH2; lactam 7-15) |  | 10 | less cytotoxic as compared to drug alone |  | 
CC(=O)O[C@@]12CO[C@@H]1C[C@H](O)[C@@]1(C)C(=O)[C@H](O)C3=C(C)[C@@H](OC(=O)[C@H](O)[C@@H](NC(=O)OC(C)(C)C)c4ccccc4)C[C@@](O)([C@@H](OC(=O)c4ccccc4)[C@H]21)C3(C)C [Doce, docetaxel, reference compound] | 54–61% | 16 |  |  | 
CC(C)[C@@H]1NC(=O)[C@H]([C@@H](C)O)NC(=O)[C@@H](N)CCCCNC(=O)CC[C@@H](C(N)=O)NC(=O)[C@H](CC(=O)O)NC(=O)[C@H](C)NC(=O)[C@H](CO)NC(=O)[C@H]([C@@H](C)O)NC(=O)[C@H](CCCNC(=N)N)NC1=O [compound 8] (H-KTVRTSADE-NH2; lactam 1-9) |  |  |  |  | half-life / stability under redox conditions (DTT) [8]: > 8 h and 8 h
COc1cccc2c1C(=O)c1c(O)c3c(c(O)c1C2=O)C[C@@](O)(C(=O)CO)C[C@@H]3O[C@H]1C[C@H](N)[C@H](O)[C@H](C)O1 [Dox, doxorubicin, reference compound] | 20–34% |  |  | no significant toxicity | effect of TGF-β treatment on cytotoxicity compared to TGF-β untreated cells [2]: no observed effect

Reference: publication PMC6651341, “EDB-FN Targeted Peptide–Drug Conjugates for Use against Prostate Cancer” (International Journal of Molecular Sciences, 2019)
